The structures appear in SMILES notation.

16 compounds from ChEMBL document CHEMBL1137169, “P4 cap modified tetrapeptidyl alpha-ketoamides as potent HCV NS3 protease inhibitors” (Bioorg Med Chem Lett, 2004) can be followed below.

One experiment relates to Huh-7. Briefly: Cytotoxic concentration against Huh-7 liver cell line. It is filed as functional. Particulars: Homo sapiens.
Another experiment concerns the target NS3 (Hepatitis C virus, UniProt A3EZJ3). The experiment in a line: Inhibitory potency against HCV NS3 protease. Further details: species or system Hepacivirus hominis.
The next experiment deals with Cell line. The experiment in a line: inhibitory concentration in luciferase based replicon assay. Particulars: Homo sapiens. It is filed as functional.
The target of experiment [1] is T1, Neutrophil elastase (Homo sapiens) (UniProt P08246).
T1 sequence (whole entry): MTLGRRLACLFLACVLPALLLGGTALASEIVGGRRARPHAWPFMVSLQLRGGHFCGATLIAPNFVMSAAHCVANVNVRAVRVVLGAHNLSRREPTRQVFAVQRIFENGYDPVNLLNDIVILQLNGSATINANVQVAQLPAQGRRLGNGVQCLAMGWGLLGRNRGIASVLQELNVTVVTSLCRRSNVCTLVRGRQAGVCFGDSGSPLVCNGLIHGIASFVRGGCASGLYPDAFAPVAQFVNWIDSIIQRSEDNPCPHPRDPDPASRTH
The experiment in a line: Selectivity for human neutrophil elastase.

Chain of NS3 (A3EZJ3 whole entry): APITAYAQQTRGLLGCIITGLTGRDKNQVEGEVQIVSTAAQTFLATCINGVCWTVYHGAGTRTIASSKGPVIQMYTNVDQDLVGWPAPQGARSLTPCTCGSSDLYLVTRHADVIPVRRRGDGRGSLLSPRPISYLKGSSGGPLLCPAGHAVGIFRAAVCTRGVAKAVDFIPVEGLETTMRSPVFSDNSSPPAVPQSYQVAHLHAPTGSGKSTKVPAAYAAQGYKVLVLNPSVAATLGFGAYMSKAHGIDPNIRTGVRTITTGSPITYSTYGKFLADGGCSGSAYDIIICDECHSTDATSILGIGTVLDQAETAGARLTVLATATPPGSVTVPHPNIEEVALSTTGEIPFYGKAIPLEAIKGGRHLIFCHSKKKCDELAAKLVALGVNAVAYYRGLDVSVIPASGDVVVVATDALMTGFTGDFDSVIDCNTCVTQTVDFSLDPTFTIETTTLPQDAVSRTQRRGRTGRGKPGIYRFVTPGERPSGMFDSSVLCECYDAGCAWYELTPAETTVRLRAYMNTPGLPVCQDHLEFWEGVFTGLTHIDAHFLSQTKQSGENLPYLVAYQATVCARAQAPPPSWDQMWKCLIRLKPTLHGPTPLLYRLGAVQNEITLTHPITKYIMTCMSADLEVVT

In the experiment on Huh-7, `CCCC(NC(=O)[C@@H]1C2CCCC2CN1C(=O)[C@@H](NC(=O)[C@@H](NC(=O)Cc1nn[nH]n1)C1CCCCC1)C(C)(C)C)C(=O)C(=O)NC1CC1` (some centres undefined) had a CC50 of over 50000 nM. Also, at NS3, the affinity, expressed as Ki, was 30 nM. The same compound showed an IC50 in the experiment with Cell line of over 50000 nM.

Turning to `CCCC(NC(=O)[C@@H]1CC(OC(=O)N2CCc3ccccc3C2)CN1C(=O)[C@@H](NC(=O)[C@@H](NC(=O)CCCCC(=O)O)C(C)C)C(C)C)C(=O)C(=O)NC1CC1` (some centres undefined), in the experiment on Huh-7, the CC50 was over 50000 nM. The compound further returned a Ki at NS3 of 65 nM. Moreover, the IC50 with Cell line is over 50000 nM.

Compound `CCC[C@H](NC(=O)[C@@H]1C2CCCC2CN1C(=O)[C@@H](NC(=O)[C@@H](NC(=O)Cc1nn[nH]n1)C(C)C)C(C)(C)C)C(=O)C(=O)NC1CC1` (some centres undefined) yielded a Ki on NS3 of 808 nM.

For `CCCC(NC(=O)[C@@H]1C2CCCC2CN1C(=O)[C@@H](NC(=O)[C@@H](NC(=O)CCCCc1nnn[nH]1)C(C)C)C(C)C)C(=O)C(=O)N[C@@H](C)c1ccccc1` (stereo in doubt; 13), the Ki at NS3 was found to be 27 nM.

As for `CCC[C@H](NC(=O)[C@@H]1C2CCCC2CN1C(=O)[C@@H](NC(=O)[C@@H](NC(=O)c1cnccn1)C(C)C)C(C)C)C(=O)C(=O)NC1CC1` (some centres undefined), in the experiment on Huh-7, the CC50 was over 50000 nM. Further, the affinity on NS3 corresponds to a Ki of 123 nM. Moreover, the IC50 with Cell line worked out at 11600 nM.

`CCCC(NC(=O)[C@@H]1C2CCCC2CN1C(=O)[C@@H](NC(=O)[C@@H](NC(=O)CCCCc1nnn[nH]1)C(C)C)C(C)C)C(=O)C(=O)N[C@@H](C)c1ccncc1` (some centres undefined) displayed a Ki at NS3 of 112 nM.

`CCC[C@H](NC(=O)[C@@H]1C2CCCC2CN1C(=O)[C@@H](NC(=O)[C@@H](NC(=O)CCCCc1nn[nH]n1)C(C)C)C(C)C)C(=O)C(=O)NC(=O)CN` (some centres undefined) registered a Ki on NS3 of 82 nM.

With `CCCC(NC(=O)[C@@H]1CC(OC(=O)N2CCc3ccccc3C2)CN1C(=O)[C@@H](NC(=O)[C@@H](NC(=O)CCCCC(=O)OC)C(C)C)C(C)C)C(=O)C(=O)NC1CC1` (some centres undefined), the Ki on NS3 is 271 nM.

`CCC(C=O)NC(=O)[C@@H]1CC(OC(=O)c2ccc3ccccc3c2)CN1C(=O)[C@@H](NC(=O)[C@@H](NC(=O)CCCCC(=O)O)C(C)C)C(C)C` (some centres undefined): the Ki on NS3 stood at 110 nM.

As for `CCC[C@H](NC(=O)[C@@H]1C2CCCC2CN1C(=O)[C@@H](NC(=O)[C@@H](NC(=O)Cc1nn[nH]n1)[C@@H](C)CC)C(C)(C)C)C(=O)C(=O)NC1CC1` (some centres undefined), in the experiment on Huh-7, the CC50 was over 50000 nM. On NS3, the affinity corresponds to a Ki of 3110 nM. In the experiment on Cell line, this compound yielded an IC50 of over 50000 nM.

For `CCCC(NC(=O)[C@@H]1C2CCCC2CN1C(=O)[C@@H](NC(=O)[C@@H](NC(=O)CCCCc1nnn[nH]1)C(C)C)C(C)C)C(=O)C(=O)NC(C)CC` (some centres undefined), the CC50 in the experiment with Huh-7 was over 50000 nM. At NS3, this compound yielded a Ki of 248 nM. Moreover, the concentration for half-maximal inhibition (IC50) in the experiment on Cell line is over 50000 nM.

As to `CCC[C@H](NC(=O)[C@@H]1C2CCCC2CN1C(=O)[C@@H](NC(=O)[C@@H](NC(=O)CCCCc1nn[nH]n1)C(C)C)C(C)C)C(=O)C(=O)NC1CC1` (some centres undefined), the affinity on NS3, expressed as Ki, was 170 nM.

On to `CCC[C@H](NC(=O)[C@@H]1C2CCCC2CN1C(=O)[C@@H](NC(=O)[C@@H](NC(=O)CCCCc1nnn[nH]1)C(C)C)C(C)C)C(=O)C(=O)NC1CC1` (some centres undefined), for which the CC50 with Huh-7 is over 50000 nM. In experiment [1], this compound displayed a Selectivity of 7. Moreover, in the experiment with Cell line, the IC50 is over 50000 nM.

`CCCC(NC(=O)[C@@H]1C2CCCC2CN1C(=O)[C@@H](NC(=O)[C@@H](NC(=O)CCCCc1nnn[nH]1)C(C)C)C(C)C)C(=O)C(=O)Nc1ccccc1` (some centres undefined) came in with a CC50 in the experiment with Huh-7 of over 10000 nM. This compound also came in with a Selectivity in experiment [1] of 1180. The compound also yielded a Ki on NS3 of 22 nM.

With `CCCC(NC(=O)[C@@H]1C2CCCC2CN1C(=O)[C@@H](NC(=O)[C@@H](NC(=O)CCCCc1nnn[nH]1)C(C)C)C(C)C)C(=O)C(=O)N[C@@H](C)c1ccccc1` (stereo in doubt; 12), the CC50 in the experiment with Huh-7 is over 50000 nM. In addition, at NS3, the affinity corresponds to a Ki of 31 nM. In the experiment with Cell line, this compound came in with an IC50 of over 50000 nM.

For the compound `CCCC(NC(=O)[C@@H]1CC(OC(=O)N2CCc3ccccc3C2)CN1C(=O)[C@@H](NC(=O)[C@@H](NC(=O)CCCCC(=O)NC)C(C)C)C(C)C)C(=O)C(=O)NC1CC1` (some centres undefined), the CC50 with Huh-7 is over 10000 nM. For the same compound, the Selectivity in experiment [1] is 4. The same compound returned an inhibitory constant (Ki) on NS3 of 193 nM.
